Test results taken from patent US20060223884A1, “Compounds and compositions for use in the prevention and treatment of obesity and related syndromes” (priority 2005, published 2006).
Where a name gives a salt, the structure may show the parent alone.

Key:
[1] = Body weight gain in C57BU6 mice shifted to a high fat diet, analogs and isomers, 3 days (Example 9); assay type: in vivo; settings: 100 mg/kg twice daily oral gavage; for body weight gain induced by the high fat diet: C57BU6 mice on high fat diet
Description: C57BU6 mice were received at 6-7 weeks of age and fed a standard commercial chow for 1 week (acclimation period). The animals were randomized based on their body weight values, into control and treatment groups (n=6). Then, animals were shifted to a high fat diet (60% of calories from fat) and treated twice daily by oral gavage with 4-hydroxyisoleucine (4-OH, compound 14a) or different analogs and isomers of 4-OH at the dose of 100 mg per kg of body weight for 3 days. The control group (Control HFD) received vehicle (water) alone and a group was kept under standard chow (Control Lean). Body weight of the mice was recorded daily. Two different experiments were run and the effect on body weight gain of selected analogs and isomers according to the invention is presented in FIG. 22A (Experiment 1) and FIG. 22B (Experiment 2).

[2] = Body weight of DIO mice, 4-hydroxyisoleucine and Rimonabant alone and in combination (Example 7); assay type: in vivo, C57BU6 mice; settings: oral
Description: C57BU6 mice were received at 7-8 weeks of age and fed a high fat diet (60% of calories from fat) for 8 weeks. Seven days prior to treatment, animals were randomized based on their body weight and fasted glycemia values into control and treated groups (n=8). The animals were treated by oral gavage twice daily with 4-OH (50 mg/kg of body weight; group 2), once daily in the afternoon with Rimonabant (0.1 mg/kg; group 3), and a combination of the two treatments (4-OH 50 mg/kg twice daily +Rimonabant 0.1 mg/kg once daily; group 4). The control group (group 1) received vehicle alone twice daily. After 3 weeks of treatment (day 22), the doses were increased as follows: 4-OH 100 mg/kg twice daily (group 2), Rimonabant 1 mg/kg once daily (group 3), and the combination (4-OH 100 mg/kg twice daily+Rimonabant 1 mg/kg once daily; group 4). The animals were treated for 1 week with these higher doses. Body weight of the mice was recorded every day for all groups from Day 6 to Day 28.

[3] = Body weight of DIO mice, 4-hydroxyisoleucine and metformin alone and in combination (Example 6); assay type: in vivo, C57BU6 mice; settings: DIO mice, 21 days
Description: C57BU6 mice were received at 7-8 weeks of age and fed a high fat diet (60% of calories from fat) for 8 weeks. Fasted glycemia was checked and animals with readings between 200 and 220 mg/dL were included in the study. The animals were randomized based on their body weights and glycemia values into control and treatment groups (n=8). […] The control group received vehicle (water) alone. The animals were treated for 21 days. Body weight of the mice was measured on the first day of treatment and on days 3, 7, 10, 14, 17, and 21. All data are expressed as mean±SEM.

[4] = cited from earlier work
[5] = Body weight gain and epididymal fat pad in the DIO mouse model, Compound 13e (Example 8); assay type: in vivo, C57BU6 mice; settings: 25 or 50 mg/kg twice daily oral gavage, 21 days
Description: The objective of this study was to determine the effect of one analog according to the invention, namely Compound 13e, on body weight gain in the Diet-Induced Obesity (DIO) mouse model.
C57BU6 mice were received at 7-8 weeks of age and fed a high fat diet (60% of calories from fat) for 8 weeks. Fasted glycemia and body weight values were used to randomize the mice into control and treatment groups (n=8). The average basal glycemia was between 213 and 215 mg/dL for all groups. The animals were treated twice daily by oral gavage with Compound 13e (25 or 50 mg per kg of body weight), and the control group received vehicle (200 mM bicarbonate buffer/0.1% Tween-20™, pH =9) alone. The animals were treated for 21 days. Body weight of the mice was measured on a frequent basis during the treatment. At the end of the study, the epididymal fat pads were isolated and weighed. Data are expressed as mean±SEM of body weight and mean±SEM of fat pad weight.

[6] = Oral Glucose Tolerance Test (OGTT) in DIO mice, 4-hydroxyisoleucine and Exendin-4 alone or in combination (Example 5); assay type: in vivo, C57BI/6 mice; settings: single agent, 4-OH 50 mg/kg or Exendin-4 0.01 mg/kg, after 7, 14 and 21 days of treatment
Description: (§1) Glycemic response was monitored by an Oral Glucose Tolerance Test (OGTT) performed on days 0, 7, 14, and 21 of treatment.
(§2) A total of 56 animals were used in the study. The animals were distributed into 7 groups (5 treated, 1 normal diet control, and 1 high fat diet control group). Each group was composed of 8 animals. […] For the three weeks of treatment, the test agents were dissolved in sterile saline for injection (USP). 4-Hydroxyisoleucine was kept at 4° C. (administration to groups 3, 4, and 7) while a frozen aliquot of Exendin-4 was thawed each dosing day for administration to groups 5, 6, and 7. Control animals received sterile saline, twice daily (groups 1 and 2). […] Animals from groups 5 and 6 received sterile saline as the AM treatment, while the PM treatment consisted of 0.05 and 0.01 mg/kg of Exendin-4, respectively. For Group 7, the AM treatment consisted of 50 mg/kg 4-OH only, while the PM treatment consisted of 0.01 mg/kg of Exendin-4+50 mg/kg of 4-OH. All groups were treated by subcutaneous injection.
On days 0, 7, 14, and 21, animals fasted for approximately 5 hours were challenged with an Oral Glucose Tolerance Test (OGTT) at 5 hours post-AM test agent administration. Whole blood glucose levels were monitored using a hand-held glucometer prior to OGTT and for up to 2 hours post-glucose challenge.

[7] = Weight gain and epididymal fat of DIO-C57Bl/6 mice, 4-hydroxyisoleucine and Exendin-4 alone or in combination (Example 5); assay type: in vivo, C57BI/6 mice; settings: s.c., 21 days
Description: as §1, §2

With `CC1(O)CC(C(=O)O)NCC1O` (centres unmarked) [compound 65a, 4-methyl-4,5-dihydroxypipecolic acid] the “efficacy on body weight gain relative to compound #14a” value [1] was “greater efficacy than the SRS isomer of 4-OH” and the “body weight gain induced by the high fat diet” value (shortened to “body weight gain induced”) [1] was “reduced body weight gain induced by the high fat diet”.
With `Cc1c(C(=O)NN2CCCCC2)nn(-c2ccc(Cl)cc2Cl)c1-c1ccc(Cl)cc1` [Rimonabant, 5-(4-Chlorophenyl)-1-(2,4-dichlorophenyl)-4-methyl-N-(piperidin-1-yl)-1H-pyrazole-3-carboxamide, reference compound] the “body weight gain after 21 days (low dosage treatment)” value ([2]; 4-OH 50 mg/kg twice daily, Rimonabant 0.1 mg/kg once daily, alone or in combination) was “slight reduction of body weight gain” and the “body weight after dose increase (day 22 to 28)” value ([2]; 4-OH 100 mg/kg twice daily, Rimonabant 1 mg/kg once daily, alone or in combination (combination compared to each compound separately)) was “immediately reduced the body weight”.
For `CN(C)C(=N)N=C(N)N` [metformin], the “body weight as compared to vehicle-treated mice” value ([3]; 100 mg/kg twice daily oral, only 4-OH significant (p<0.01 4-OH, p=0.27 metformin)) is listed as “reduction of their body weight”, the “body weight compared to control DIO mice, given alone” value ([3]; 4-OH 50 mg/kg or metformin 25 mg/kg twice daily oral) is listed as “no significant effect on body weight” and the blood glucose levels ([4]; by increasing insulin sensitivity (Stumvoll et al. 1995)) is listed as “lowers blood glucose levels”. The body weight ([4]; most studies conducted in patients with type 2 diabetes (Hundal et al. 2003)) was “reduce body weight” and the weight ([4]; obese individuals without diabetes (Glueck et al. 2001)) was “induced weight loss”.
In the case of `C[C@H]([C@@H](C)O)[C@@H](N)C(=O)O` [compound 14aa, (2R,3S,4R)-4-Hydroxyisoleucine], the “body weight gain induced” value [1] is reported as “reduced body weight gain induced by the high fat diet”.
With `COC(=O)[C@@H]1C[C@H](O)CN1` [compound 76, cis-4-hydroxyproline methyl ester HCl salt] the “body weight gain induced” value [1] was “reduced body weight gain induced by the high fat diet”.
For `CC(=O)N[C@@H]1C(=O)O[C@@H](C)[C@@H]1C` [compound 104], the “body weight gain induced” value [1] was “reduced body weight gain induced by the high fat diet”.
In the case of `CC(C)(C)C(O)CC(N)C(=O)O` (centres unmarked) [compound 62, 2-amino-4-hydroxy-5,5-dimethyl-hexanoic acid], the “efficacy on body weight gain relative to compound #14a” value [1] is reported as “greater efficacy than the SRS isomer of 4-OH” and the “body weight gain induced” value [1] is reported as “reduced body weight gain induced by the high fat diet”.
For `N[C@H](C(=O)O)[C@@H]1CCCC[C@H]1O` [Compound 13e, (S)-2-amino-2-((1S,2R)-2-hydroxycyclohexyl)acetic acid], the “body weight gain compared to vehicle treated mice” value [5] was “reduction in body weight gain”, the “dose dependence of the effect on body weight gain” value ([5]; DIO mice) was “dose-dependent” and the “epididymal fat pad weight” value ([5]; DIO mice, grams per 10 grams of body weight) was “reduction of epididymal fat pad weight”.
With `O=C(O)[C@@H]1C[C@H](O)CN1` [compound 75, cis-4-hydroxyproline] the “body weight gain induced” value [1] was “reduced body weight gain induced by the high fat diet”.
In the case of “Exendin-4: glucagon-like peptide 1 (GLP-1) receptor agonist”, the “glycemic levels following OGTT challenge” value [6] is reported as “effective”, the body weight gain ([7]; 4-OH 50 mg/kg twice daily, Exendin-4 0.01 mg/kg (PM), alone or in combination) is reported as “decrease in body weight gain” and the “weight of epididymal fat” value ([7]; 4-OH 100 mg/kg, Exendin-4 0.01 mg/kg, combination 4-OH 50 mg/kg + Exendin-4 0.01 mg/kg) is reported as “not effective”. The “weight of epididymal fat” value ([7]; Exendin-4 0.05 mg/kg) was “effective”.
In the case of `COC(=O)[C@H]1C[C@@H](O)CN1` [compound 202], the “body weight gain induced” value [1] is reported as “reduced body weight gain induced by the high fat diet”.
